In patent publication US6348487B1, “2-phenyl benzimidazole derivatives as MCP-1 antagonists” (Millennium Pharmaceuticals, Inc., priority 1996, dated 2002):
Marks after values point to notes of the source that are not given here.

Key:
[1] = tested on: T lymphocyte blast cells (CD3-Blasts); test: CD3-Blast Chemotaxis Assay (transendothelial migration to MCP-1); assay type: cell-based, human; conditions: 10 μM compound; MCP-1 about 10 nM; ECV304 endothelial coated Transwells
Description: Recombinant human MCP-1 was obtained from Peprotech (Rockey Hill, N.J.). T lymphocyte blast cells (CD3-Blasts) were generated by standard protocols (Coligan, J. E., A. M. Kruisbeek, D. H. Macgulies, E. M. Shevach, and W. Strober, editors. 1992. Current Protocols in Immunology. John Wiley and Sons, New York 7.1.2, 7.10.1-7.10. 10). Briefly, human peripheral blood mononuclear cells (PBMC) were isolated from heparinized venous blood by Percoll density gradient centrifugation (d=1.088) at room temperature. RBCs were removed by hypotonic lysis or dextran sedimentation. Blast cells were generated by incubating 2×10^6 PBMC in 24-well tissue culture plates that were coated with 2.5 μg of an anti-CD3 monoclonal antibody (identified as TR66, a gift from Dr. A. Lanzivecchia; similar monoclonal antibody is HIT3a, from Parmingen #30111A) at 37° C. for 48 to 72 hours, and then transferring 12 wells to T25 or T75 flasks with RPMI (Roswell Park Memorial Institute 1640, a growth cell medium available from Gibco/RBL, Inc., New York)+10% FCS (fetal calf serum)+50 units/ml IL-2. The cells are expanded and cultured for up to 3 weeks. CD3-Blast chemotaxis was assessed no sooner than 3 to 4 days after transfer to the IL-2 containing medium using a modification of a transendothelial migration assay (Carr. M. W., S. J. Roth, B. Luther, S. S. Rose, and T. A. Springer. 1994. Monocyte chemoattractant protein 1 acts as a T-lymphocyte chemoattractant. Proc. Natl. Acad. Sci. USA 91:3652-6). The endothelial cells used for this assay were the endothelial cell line ECV304. (ECV304 was from the European Collection of Animal Cell Cultures, Porton Downs, UK, assession #92091712). Endothelial cells were cultured on 6.5 mm diameter Transwell culture inserts (Costar) with a […] pore size. […] Background migration was determined by counting cells that migrated in the absence of MCP-1 in the lower chamber. […] The percent inhibition by compounds of directed migration was determined by the following formula: [drawing 32] […]

[2] = tested on: T cell recruitment at sites of DHR; test: Inhibition of T cell recruitment to rat skin inflammatory (DHR) sites; assay type: in vivo
Experimental: Inbred, approximately 200 g, male Lewis rats were used in all experiments. Cutaneous delayed hypersensitivity (DHR) was induced as previously described (1). Briefly, rats were sensitized to KLH (Sigma Chemical Co., St. Louis, Mo.) by administering 50 μg KLH in 0.1 mL complete Freund's adjuvant (CFA; Sigma Chemical Co.) into each of 4 subcutaneous sites. After 14 days, DHR was elicited by the challenge of 5 μg KLH in PBS into multiple intradermal sites on the back. Analysis was performed 24 hours after antigen challenge. For each experiment, there were at least three groups of animals of at least four animals in each group. […]
T cell recruitment at sites of DHR was quantified using methods previously described (1-4). […] The cells in the effluent were highly purified (>95%) rat T cells as assessed by anti-rat CD3 (monoclonal antibody KT3, Biosource International, Camarillo, Calif.) immunoreactivity by flow cytometry. […] Skin challenge sites (8 mm in diameter) were counted on a γ counter 24 hours after injection of radiolabeled T cells. Lung, liver, and spleen were also collected and counted as comparative indices for evaluation of input.
Statistical significance was determined using a paired Student's t-test. […]

Compound: CCN(CC)CCN(CCN(CC)CC)c1ccc(-c2nc3cc(Cl)c(Cl)cc3[nH]2)cc1 [Example 1, N-[4-(5,6-dichloro-1H-benzimidazol-2-yl)-phenyl]-N-(2-diethylamino-ethyl)-N, N-diethyl-ethane-1,2-diamine]
- % Inhibition of Chemotaxis at 10 μM [1]: 62-142* %
- inhibition of T cell recruitment in rat DHR ([2]; 30 and 23 mg/kg per os at the time of antigen challenge, 24 hour period (FIG. 2)): statistically significant inhibitory effect
- recruitment of 111In-labeled rat T cells to skin DHR sites ([2]; administered once per os at the time of antigen challenge (FIG. 2)): inhibited the recruitment of ^111In-labeled rat T cells to skin DHR sites in a dose-dependent fashion
